US11208675B2, “Reaction accelerating agent” (Kikkoman Corporation, priority 2016, dated 2021)

Assays:
[1] = biological target: T1, peroxidase PEO-301 (Toyobo Co., Ltd.) (Armoracia rusticana, UniProt P00433); assay: Hydrogen peroxide detection reaction mediated by peroxidase, completed using an excess of peroxidase (Example 1); format: biochemical; details: 0.067 U/ml peroxidase, 0.48% (w/v) compound in second reagent, 0.00012% (w/v) hydrogen peroxide, DA-67, pH 6.5, 37° C.; for ΔA9 min: ΔA of A694/751, 9 minutes after mixing second reagent with first reagent-A; for ΔA10 min: ΔA of A694/751, 10 minutes after mixing second reagent with first reagent-A (defined as ΔA100%)
T1 construct: purchased Toyobo Co., Ltd. PEO-301
T1 sequence (P00433 31-338): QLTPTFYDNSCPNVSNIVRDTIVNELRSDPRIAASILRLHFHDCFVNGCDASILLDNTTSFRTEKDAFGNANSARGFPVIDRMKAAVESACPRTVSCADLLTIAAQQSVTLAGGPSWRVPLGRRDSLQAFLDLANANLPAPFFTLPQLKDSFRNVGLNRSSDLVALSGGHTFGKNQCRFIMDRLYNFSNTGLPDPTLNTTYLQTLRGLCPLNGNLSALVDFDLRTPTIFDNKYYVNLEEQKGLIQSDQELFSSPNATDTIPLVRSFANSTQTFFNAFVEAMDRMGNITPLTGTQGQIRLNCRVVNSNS
Procedure: In this Example the amount of change in absorbance was determined when hydrogen peroxide detection reaction was completed using an excess of peroxidase.
A reagent for hydrogen peroxide measurement having the following composition (formulation) was prepared, and the measurement of hydrogen peroxide was carried out using Bio Majesty JCA-BM1650 (manufactured by JEOL Ltd.).
(§1) 100 mM MOPS-NaOH buffer solution, pH 6.5
(§2) 0.00012% (w/v) hydrogen peroxide
(§3) 30 mM MOPS-NaOH buffer solution, pH 6.5
(§4) 0.2% (w/v) n-dodecyl-β-D-maltoside (manufactured by Dojindo Laboratories)
0.067 U/ml peroxidase PEO-301 (Toyobo Co., Ltd.)
(§5) 0.023 mM 10-(carboxymethylaminocarbonyl)-3,7-bis(dimethylamino)phenothiazine sodium (DA-67, manufactured by Wako Pure Chemical Industries, Ltd.)
0.48% (w/v) of the compound of Comparative Example 2 (Wako Pure Chemical Industries, Ltd.), any one compound of the present invention (all from Tokyo Chemical Industry Co., Ltd.), or compound-free (Comparative Example 1) ion-exchange water as shown in Table 1
(§6) 8 μl of the second reagent was added to 96 μl of the first reagent-A, and the mixture was incubated at 37° C. for 5 minutes. Then, 24 μl of the sample was added thereto, and the quantitative reaction of hydrogen peroxide was allowed to progress at 37° C. for 5 minutes. The absorbance (A694 and A751) of the reaction solution for light at wavelengths of 694 nm and 751 nm was measured over time for 10 minutes after the mixing of the second reagent with the first reagent-A to determine the value of subtraction of A751 from A694, i.e., the value of A694/751. Subsequently, ΔA was calculated by subtracting, from A694/751, the value of (104/128) times A694/751 4.8 minutes after the mixing of the second reagent with the first reagent-A. Incidentally, 4.8 minutes after the mixing of the second reagent with the first reagent-A represents the time immediately before the addition of the sample. ΔA 9 minutes and 10 minutes after the mixing of the second reagent with the first reagent-A (ΔA9 min and ΔA10 min) is shown in Table 1.
In other words, it can be understood that the quantitative reaction of hydrogen peroxide was completed in 10 minutes after the mixing of the second reagent with the first reagent-A. Accordingly, ΔA10 min in each Comparative Example or the present invention was defined as ΔA when 100% of the quantitative reaction of hydrogen peroxide progressed under each condition (ΔA100%).

[2] = biological target: T1, peroxidase PEO-301 (Toyobo Co., Ltd.); assay: Acceleration of hydrogen peroxide detection reaction mediated by peroxidase, using a small amount of peroxidase (Example 2); format: biochemical; details: 0.013 U/ml peroxidase; for acceleration of hydrogen peroxide detection reaction using peroxidase: as shown in Table 2, compared with not added; for Degree of progression of reaction (%) after 7.5 minutes / Degree of progression of reaction (%) after 10 minutes: ΔA divided by ΔA100%, 0.48% (w/v) compound in second reagent, 37° C.; for Degree of progression of reaction (%) after 7.5 minutes: 7.5 minutes after mixing second reagent with first reagent-B (2.5 minutes after addition of sample); for Degree of progression of reaction (%) after 10 minutes: 10 minutes after mixing second reagent with first reagent-B (5 minutes after addition of sample)
Procedure: Next, in this Example, the degree of acceleration of hydrogen peroxide detection reaction by the compound of the present invention was determined using a small amount of peroxidase.
A reagent for Hydrogen peroxide measurement having the following composition was prepared, and the measurement of hydrogen peroxide was carried out using Bio Majesty JCA-BM1650 (manufactured by JEOL Ltd.).
as §1, §2, §3, §4
0.013 U/ml peroxidase PEO-301 (Toyobo Co., Ltd.)
as §5
0.48% (w/v) of the compound of Comparative Example 2, any one compound of the present invention, or compound-free (Comparative Example 1) ion-exchange water as shown in Table 2
as §6, with “reagent-B,” for “reagent-A,”, “reagent-B” for “reagent-A”, “reagent-B.” for “reagent-A.”, “sample.” for “sample. ΔA 9 minutes and 10 minutes after the mixing of the second reagent with the first reagent-A (ΔA9 min and ΔA10 min) is shown in Table 1.”
Next, ΔA calculated in this Example was divided by ΔA100% defined in Example 1 to calculate the degree of progression of hydrogen peroxide detection reaction. The degree of progression of hydrogen peroxide detection reaction 7.5 and 10 minutes after the mixing of the second reagent with the first reagent-B (in other words, 2.5 and 5 minutes, respectively, after the addition of the sample) is shown in Table 2.

| Molecule | ΔA9 min [1] | ΔA10 min [1] | acceleration of hydrogen peroxide detection reaction using peroxidase [2] | Degree of progression of reaction (%) after 7.5 minutes [2] [%] | Degree of progression of reaction (%) after 10 minutes [2] [%] |
| --- | --- | --- | --- | --- | --- |
| COc1cc(N=Nc2cccc(S(=O)(=O)[O-])c2)ccc1NC(=O)Nc1ccc(N=Nc2ccc(O)c(C(=O)[O-])c2)cc1.[Na+].[Na+] [Direct Yellow 44] | 0.228 | 0.228 | accelerated | 64 | 89 |
| Chrome Yellow | 0.272 | 0.272 | accelerated | 66 | 92 |
| O=C([O-])c1cc(N=Nc2cccc([N+](=O)[O-])c2)ccc1O.[Na+] [Alizarin Yellow GG] | 0.170 | 0.170 | accelerated | 64 | 89 |
| Oc1ccc(N=Nc2ccccc2)cc1 [4-(Phenylazo)phenol, 4-(phenylazo)phenol] | 0.122 | 0.122 | accelerated | 69 | 90 |
| O=C([O-])C1=NN(c2ccc(S(=O)(=O)[O-])cc2)C(=O)C1N=Nc1ccc(S(=O)(=O)[O-])cc1.[Na+].[Na+].[Na+] (stereo not drawn) [Tartrazine, reference compound] | 0.344 | 0.344 | accelerated | 57 | 85 |
| O=C(O)c1cc2ccccc2c(N=Nc2c(O)cc(S(=O)(=O)O)c3ccccc23)c1O [2-hydroxy-1-(2-hydroxy-4-sulfo-1-naphthylazo)-3-naphthoic acid] | 0.084 | 0.085 | accelerated | 61 | 90 |
